Legend:
[1] = system: LPS-stimulated TNFα production in THP-1 cells; experiment: LPS-stimulated TNFα production inhibition test using human acute monocytic leukemia cell strain THP-1; format: cell-based; conditions: Homo sapiens, THP-1, 4 h, LPS 2.5 ng/mL, average values
Summary of the method: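 THP-1 cells were preincubated with compound for 1 h at 37 °C, then stimulated with LPS (2.5 ng/mL final) for 4 h. Supernatant TNFα was quantified by HTRF (620/665 nm ratio) against a calibration curve. IC50 came from a 4-parameter logistic fit, with no-LPS set as 100% and no-compound as 0% suppression.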

human IRAK-4 = human IRAK-4 (Homo sapiens (Human), UniProt Q9NWZ3); experiment: Measurement of human IRAK-4 inhibitory activity (TR-FRET, peptide substrate phosphorylation, 10 μM ATP); format: biochemical; conditions: 1 nM IRAK-4, 10 μM ATP, 23° C., 30 minutes; average values
Summary of the method: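 With 1 nM IRAK-4, 0.5 μM biotinylated peptide and 10 μM ATP, compound incubated 30 min at 23 °C in 50 mM HEPES pH 7.2 with Mg2+/Mn2+. Stopped with EDTA plus europium-cryptate anti-phosphopeptide antibody and streptavidin-XL665, 60 min at 23 °C. Activity taken as the 665/620 nm TR-FRET ratio.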

Sequence of human IRAK-4 (Q9NWZ3 whole entry): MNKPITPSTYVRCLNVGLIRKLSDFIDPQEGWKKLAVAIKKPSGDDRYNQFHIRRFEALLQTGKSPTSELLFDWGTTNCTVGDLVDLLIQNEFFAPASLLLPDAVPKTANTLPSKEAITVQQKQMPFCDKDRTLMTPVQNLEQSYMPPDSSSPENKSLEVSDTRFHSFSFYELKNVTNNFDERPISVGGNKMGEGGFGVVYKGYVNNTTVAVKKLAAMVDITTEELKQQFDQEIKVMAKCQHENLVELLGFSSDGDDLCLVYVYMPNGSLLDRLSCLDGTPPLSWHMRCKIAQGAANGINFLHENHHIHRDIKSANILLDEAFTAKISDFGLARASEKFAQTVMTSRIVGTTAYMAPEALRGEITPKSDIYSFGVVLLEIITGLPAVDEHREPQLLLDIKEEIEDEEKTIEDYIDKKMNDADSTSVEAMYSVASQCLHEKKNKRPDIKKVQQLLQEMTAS

Compound | IC50 [1] | IC50 (human IRAK-4)
O=C(Nc1nc2ccc(-c3cnc(CO[C@H]4CCC[C@@H]4O)nc3)cc2s1)C1CC(N2CCC[C@@H]2C(F)(F)F)C1 (stereo partly shown) [b-02-43] | 123 nM | 3.1 nM
O=C(Nc1nc2ccc(-c3cnc(CO[C@H]4CCC[C@@H]4O)nc3)cc2s1)C1CC(N2CCN(C3CC3)CC2)C1 (stereo partly shown) [b-02-28] | 103 nM | 2.17 nM
CC(C)[C@@H]1[C@H](O)CCCN1C1CC(C(=O)Nc2nc3ccc(-c4cnc(CO[C@H]5CCC[C@@H]5O)nc4)cc3s2)C1 (stereo partly shown) [b-02-85] | 127 nM | 1.88 nM
O=C(Nc1nc2ccc(-c3cnc(CO[C@H]4CCC[C@@H]4O)nc3)cc2s1)[C@@H]1C[C@H]1F [a-01-03] | 141 nM | 2.69 nM
C[C@@H]1CCCCN1C1CC(C(=O)Nc2nc3ccc(-c4cnc(CO[C@H]5CCC[C@@H]5O)nc4)cc3s2)C1 (stereo partly shown) [b-02-84] | 101 nM | 1.04 nM
CN(C1CC(C(=O)Nc2nc3ccc(-c4cnc(CO[C@H]5CCC[C@@H]5O)nc4)cc3s2)C1)C12CC(C1)C2 (stereo partly drawn) [b-03-01, 3-(Bicyclo[1,1,1]pentan-1-yl(methyl)amino)-N-(6-(2-((((1S,2S)-2-hydroxycyclopentyl)oxy)methyl)pyrimidin-5-yl)benzo[d]thiazol-2-yl)cyclobutane-1-carboxamide] | 71 nM | 1.3 nM
C[C@H]1CN(C(=O)c2ccncc2Cl)CCN1[C@H]1C[C@@H](C(=O)Nc2nc3ccc(-c4cnc(CO[C@H]5CCC[C@@H]5O)nc4)cc3s2)C1 [b-04-48] | 35 nM | 0.52 nM
CCCOCc1ncc(-c2ccn3nc(NC(=O)[C@H]4C[C@@H](N5CCN(C(=O)N(C)C)C[C@@H]5C)C4)cc3c2)cn1 [e-02-20] | 244 nM | 2.22 nM
C[C@H]1CN(C(=O)c2ccno2)CCN1[C@H]1C[C@@H](C(=O)Nc2nc3ccc(-c4cnc(CO[C@H]5CCC[C@@H]5O)nc4)cc3s2)C1 [b-04-33] | 55 nM | 1.99 nM
C[C@@H]1CCCN1C1CC(C(=O)Nc2nc3ccc(-c4cnc(CO[C@H]5CCC[C@@H]5O)nc4)cc3s2)C1 (stereo partly shown) [b-02-27] | 159 nM | 1.48 nM
CC(C)(C)O[C@H]1C[C@@H](C(=O)Nc2nc3ccc(-c4cnc(CO[C@H]5CCC[C@@H]5O)nc4)cc3s2)C1 [d-02-01, (1s,3s)-3-(tert-Butoxy)-N-(6-(2-((((1S,2S)-2-hydroxycyclopentyl)oxy)methyl)pyrimidin-5-yl)benzo[d]thiazol-2-yl)cyclobutane-1-carboxamide] | 77 nM | 1.83 nM
N#CC1(NC2CC(C(=O)Nc3nc4ccc(-c5cnc(CO[C@H]6CCC[C@@H]6O)nc5)cc4s3)C2)CC1 (stereo partly shown) [b-02-59] | 105 nM | 1.51 nM
CCCOCc1ncc(-c2ccc3nc(NC(=O)[C@H]4C[C@@H](N5CCN(C(=O)c6cc(F)ccn6)C[C@@H]5C)C4)sc3c2)cn1 [b-04-41] | 76 nM | 0.69 nM
CC1COC2(CCCC2)CN1C1CC(C(=O)Nc2nc3ccc(-c4cnc(CO[C@H]5CCC[C@@H]5O)nc4)cc3s2)C1 (stereo partly shown) [b-02-82] | 131 nM | 4.02 nM
O=C(Nc1nc2ccc(-c3cnc(CO[C@H]4CCC[C@@H]4O)nc3)cc2s1)C1CC(N(CCC(F)(F)F)C23CC(C2)C3)C1 (stereo partly shown) [b-03-02] | 145 nM | 11 nM
Cc1cc(C(=O)N2CCN([C@H]3C[C@@H](C(=O)Nc4nc5ccc(-c6cnc(CO[C@H]7CCC[C@@H]7O)nc6)cc5s4)C3)[C@@H](C)C2)cc(C)n1 [b-04-40] | 25 nM | 0.89 nM
COCCOc1c(-c2cnc(CO[C@H]3CCC[C@@H]3O)nc2)ccc2nc(NC(=O)C3CC3)sc12 [c-04-03] | 184 nM | 12.4 nM
O=C(Nc1nc2ccc(-c3cnc(CO[C@H]4CCC[C@@H]4O)nc3)cc2s1)C1CC(N2CCCCC2)C1 (stereo partly shown) [b-02-83] | 149 nM | 1.93 nM
O=C(Nc1nc2ccc(-c3cnc(CO[C@H]4CCC[C@@H]4O)nc3)cc2s1)C1CC(NCc2nccs2)C1 (stereo partly shown) [b-02-86] | 132 nM | 0.803 nM
COc1c(-c2cnc(CO[C@H]3CC(F)(F)C[C@@H]3O)nc2)ccc2nc(NC(=O)C3CC3)sc12 [c-04-01, N-(6-(2-((((1S,2S)-4,4-Difluoro-2-hydroxycyclopentyl)oxy)methyl)pyrimidin-5-yl)-7-methoxybenzo[d]thiazol-2-yl)cyclopropanecarboxamide] | 115 nM | 4.04 nM
CN(C1CC(C(=O)Nc2nc3ccc(-c4cnc(CO[C@H]5CCC[C@@H]5O)nc4)cc3s2)C1)C1CC(F)(F)C1 (stereo partly shown) [b-03-08] | 127 nM | 2.68 nM
O=C(Nc1nc2ccc(-c3cnc(CO[C@H]4CCC[C@@H]4O)nc3)cc2s1)C1CC(NC2CC2)C1 (stereo partly shown) [b-02-47] | 110 nM | 1.75 nM
O=C(Nc1nc2ccc(-c3cnc(CO[C@H]4CCC[C@@H]4O)nc3)cc2s1)C1CC(N2CCC[C@H]2C(F)(F)F)C1 (stereo partly shown) [b-02-44] | 143 nM | 3.93 nM
CN1CCN(C2CC(C(=O)Nc3nc4ccc(-c5cnc(CO[C@H]6CCC[C@@H]6O)nc5)cc4s3)C2)CC(F)(F)C1 (stereo partly shown) [b-02-41] | 160 nM | 2.86 nM

Compound | IC50 [1] | IC50 (human IRAK-4)
C[C@H]1CN(C(=O)c2ccc(Cl)cn2)CCN1[C@H]1C[C@@H](C(=O)Nc2nc3ccc(-c4cnc(CO[C@H]5CCC[C@@H]5O)nc4)cc3s2)C1 [b-04-37] | 35 nM | 0.81 nM
CCCOCc1ncc(-c2ccn3nc(NC(=O)[C@H]4C[C@@H](N5CCN(C(=O)c6coc(C)n6)C[C@@H]5C)C4)cc3c2)cn1 [e-02-21] | 188 nM | 1.73 nM
O=C(Nc1nc2ccc(-c3cnc(CO[C@H]4CCC[C@@H]4O)nc3)cc2s1)C1CC(N2CCOCC(F)(F)C2)C1 (stereo partly shown) [b-02-35] | 140 nM | 2.52 nM
CN(C1CC(C(=O)Nc2nc3ccc(-c4cnc(CO[C@H]5CCC[C@@H]5O)nc4)cc3s2)C1)C12CC(C#N)(C1)C2 (stereo partly shown) [b-03-06] | 116 nM | 2.8 nM
O=C(Nc1nc2ccc(-c3cnc(CO[C@H]4CCC[C@@H]4O)nc3)cc2s1)C1C[C@H]1C1CCOCC1 (stereo partly shown) [a-01-09] | 140 nM | 1.81 nM
CCC(=O)N1CCN([C@H]2C[C@@H](C(=O)Nc3nc4ccc(-c5cnc(CO[C@H]6CCC[C@@H]6O)nc5)cc4s3)C2)[C@@H](C)C1 [b-05-05] | 50 nM | 1.95 nM
C[C@H]1CN(C(=O)C2CCC2)CCN1[C@H]1C[C@@H](C(=O)Nc2nc3ccc(-c4cnc(CO[C@H]5CCC[C@@H]5O)nc4)cc3s2)C1 [b-05-07] | 44 nM | 2.51 nM
COCCO[C@H]1C[C@@H](C(=O)Nc2nc3ccc(-c4cnc(CO[C@H]5CCC[C@@H]5O)nc4)cc3s2)C1 [d-04-02] | 207 nM | 2.48 nM
CN(C1CC1)C1CC(C(=O)Nc2nc3ccc(-c4cnc(CO[C@H]5CCC[C@@H]5O)nc4)cc3s2)C1 (stereo partly shown) [b-03-03] | 126 nM | 1.43 nM
O=C(Nc1nc2ccc(-c3cnc(CO[C@H]4CCC[C@@H]4O)nc3)cc2s1)C1CC2(COC2)C1 [d-01-07] | 184 nM | 1.75 nM
CCCOCc1ncc(-c2ccn3nc(NC(=O)[C@H]4C[C@@H](N5CCN(C(=O)c6ccc(C(F)(F)F)cn6)C[C@@H]5C)C4)cc3c2)cn1 [e-02-16] | 175 nM | 1.85 nM
CC1COCCCN1C1CC(C(=O)Nc2nc3ccc(-c4cnc(CO[C@H]5CCC[C@@H]5O)nc4)cc3s2)C1 (stereo partly shown) [b-02-36] | 145 nM | 1.82 nM
Cc1oncc1C(=O)N1CCN([C@H]2C[C@@H](C(=O)Nc3nc4ccc(-c5cnc(CO[C@H]6CCC[C@@H]6O)nc5)cc4s3)C2)[C@@H](C)C1 [b-04-29] | 55 nM | 1.6 nM
O=C(Nc1nc2ccc(-c3cnc(CO[C@H]4CCC[C@@H]4O)nc3)cc2s1)C1CC(NC2(C(F)(F)F)CCC2)C1 (stereo partly shown) [b-02-79] | 138 nM | 3.39 nM
CC(C)[C@H]1CN(C(=O)C2CCOC2)CCN1C1CC(C(=O)Nc2nc3ccc(-c4cnc(CO[C@H]5CCC[C@@H]5O)nc4)cc3s2)C1 (stereo partly shown) [b-04-17] | 22 nM | 1.58 nM
CN1CC(F)(COc2c(-c3cnc(CO[C@H]4CCC[C@@H]4O)nc3)ccc3nc(NC(=O)C4CC4)sc23)C1 [c-05-01, N-(7-((3-Fluoro-1-methylazetidin-3-yl)methoxy)-6-(2-((((1S,2S)-2-hydroxycyclopentyl)oxy)methyl)pyrimidin-5-yl)benzo[d]thiazol-2-yl)cyclopropanecarboxamide] | 233 nM | 5.48 nM
C[C@H]1CN(C(=O)C23CC(C2)C3)CCN1[C@H]1C[C@@H](C(=O)Nc2nc3ccc(-c4cnc(CO[C@H]5CCC[C@@H]5O)nc4)cc3s2)C1 [b-04-10] | 30 nM | 3.94 nM
CN(C1CC(C(=O)Nc2nc3ccc(-c4cnc(CO[C@H]5CCC[C@@H]5O)nc4)cc3s2)C1)C1(C(F)F)CC1 (stereo partly shown) [b-03-05] | 108 nM | 2.93 nM
C[C@H]1CN(C(=O)c2ccccc2)CCN1[C@H]1C[C@@H](C(=O)Nc2nc3ccc(-c4cnc(CO[C@H]5CCC[C@@H]5O)nc4)cc3s2)C1 [b-05-04] | 24 nM | 4.38 nM
C[C@H]1CN(C(=O)c2ccccc2)CCN1[C@H]1C[C@@H](C(=O)Nc2cc3cc(-c4cnc(CO[C@H]5CCC[C@@H]5O)nc4)ccn3n2)C1 [e-02-09] | 65 nM | 1.09 nM
C[C@H]1CN(C(=O)[C@H]2CCOC2)CCN1[C@H]1C[C@@H](C(=O)Nc2nc3ccc(-c4cnc(CO[C@H]5CCC[C@@H]5O)nc4)cc3s2)C1 [b-04-23] | 54 nM | 1.41 nM
C[C@H]1CCCN1C1CC(C(=O)Nc2nc3ccc(-c4cnc(CO[C@H]5CCC[C@@H]5O)nc4)cc3s2)C1 (stereo partly shown) [b-02-26] | 126 nM | 1.75 nM
CC(=O)N1CCN([C@H]2C[C@@H](C(=O)Nc3cc4cc(-c5cnc(CO[C@H]6CCC[C@@H]6O)nc5)ccn4n3)C2)[C@@H](C)C1 [e-02-08] | 165 nM | 1.32 nM
